Experimental data: patent US12209085B2, “RET inhibitors, pharmaceutical compositions and uses thereof” (SUNSHINE LAKE PHARMA CO., LTD., priority 2018, dated 2025)

Tests used:
Ret wt = Ret wt (Homo sapiens (Human), UniProt P07949); test: HTRF kinase inhibition assay, Ret wt; assay type: biochemical; details: HTRF method
Description: (§1) • 1. […] 1) • 18) Echo (Labcyte, 550) • 3.
(§2) [formula] • Ratiopositive control: average of CEP-32496 readings in all positive control wells • Rationegative control: average of DMSO readings in all negative control wells • Wherein, the chemical name of CEP-32496 is: N-[3-[(6,7-dimethoxy-4-quinazolinyl)oxy]phenyl]-N′-[5-(2,2,2-trifluoro-1,1-dimethylethyl)-3-isoxazolyl]urea. • 4.3 Calculation of the IC50 and Drawing of the inhibition curve of the compound: • The IC50 (half inhibitory concentration) of the compound was obtained using the following non-linear fitting formula: Data analysis was performed using Graphpad 6.0 software. Y=Bottom+(Top−Bottom)/(1+10^((Log IC50−X)*Hill Slope)) • X: compound concentration log value Y: inhibition, % • 5.

Ret V804M = Ret V804M (Homo sapiens (Human), UniProt P07949, V804M); test: HTRF kinase inhibition assay, Ret V804M; assay type: biochemical; details: HTRF method
Sequence of Ret V804M (P07949 29-1114 V804M): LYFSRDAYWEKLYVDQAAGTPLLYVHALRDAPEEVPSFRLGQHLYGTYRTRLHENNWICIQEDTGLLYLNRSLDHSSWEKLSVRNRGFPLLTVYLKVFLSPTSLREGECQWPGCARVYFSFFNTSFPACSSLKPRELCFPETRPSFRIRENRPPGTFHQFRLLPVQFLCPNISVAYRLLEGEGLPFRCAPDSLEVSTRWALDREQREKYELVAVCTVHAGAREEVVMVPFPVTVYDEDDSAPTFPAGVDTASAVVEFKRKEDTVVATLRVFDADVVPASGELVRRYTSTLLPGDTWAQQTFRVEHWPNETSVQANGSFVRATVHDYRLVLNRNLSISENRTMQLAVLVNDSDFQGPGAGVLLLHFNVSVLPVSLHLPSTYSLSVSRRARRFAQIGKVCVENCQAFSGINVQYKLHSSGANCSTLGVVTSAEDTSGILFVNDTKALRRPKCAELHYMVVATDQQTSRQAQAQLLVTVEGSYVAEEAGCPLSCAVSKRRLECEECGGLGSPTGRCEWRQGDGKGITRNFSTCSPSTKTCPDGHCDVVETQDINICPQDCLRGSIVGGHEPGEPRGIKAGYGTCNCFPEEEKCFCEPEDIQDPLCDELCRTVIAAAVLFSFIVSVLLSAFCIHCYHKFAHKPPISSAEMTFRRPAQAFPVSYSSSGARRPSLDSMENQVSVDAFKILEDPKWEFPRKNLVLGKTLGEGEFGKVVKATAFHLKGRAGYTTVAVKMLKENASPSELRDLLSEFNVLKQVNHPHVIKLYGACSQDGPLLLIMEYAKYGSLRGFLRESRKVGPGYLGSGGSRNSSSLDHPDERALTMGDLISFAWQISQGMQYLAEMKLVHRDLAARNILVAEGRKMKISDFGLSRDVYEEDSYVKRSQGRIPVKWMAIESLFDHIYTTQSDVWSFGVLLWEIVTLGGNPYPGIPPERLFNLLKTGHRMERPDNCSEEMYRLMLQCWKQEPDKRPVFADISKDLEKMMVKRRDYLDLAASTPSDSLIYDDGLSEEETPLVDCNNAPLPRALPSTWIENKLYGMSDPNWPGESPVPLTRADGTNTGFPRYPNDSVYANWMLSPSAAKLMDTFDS
Description: as §1, §2

Sequence of Ret wt (P07949 29-1114): as the sequence (P07949 29-1114 V804M) above, with M776V counted along it

Row | IC50 (Ret wt) [nM] | IC50 (Ret V804M) [nM] | SMILES
1 | 0.15 | 1.94 | Cn1cc(-c2cc(-c3ccc(N4CCN(CC#Cc5ccccn5)CC4)nc3)c3c(C#N)cnn3c2)cn1 [Example 247, 6-(1-methylpyrazol-4-yl)-4-[6-[4-[3-(2-pyridyl)prop-2-ynyl]piperazin-1-yl]-3-pyridyl]pyrazolo[1,5-a]pyridine-3-carbonitrile]
2 | 0.72 | 5.26 | COc1cncc(C#CC(=O)N2CCN(c3ccc(-c4cc(-c5cnn(C)c5)cn5ncc(C#N)c45)cn3)CC2)c1 [Example 272, 4-(6-(4-(3-(5-methoxypyridin-3-yl)propioloyl)piperazin-1-yl)pyridin-3-yl)-6-(1-methyl-1H-pyrazol-4-yl)pyrazolo[1,5-a]pyridine-3-carbonitrile]
3 | 0.39 | 2.29 | C#Cc1ccc(OC2CN(c3ccc(-c4cc(-c5cnn(C(F)F)c5)cn5ncc(C#N)c45)cn3)C2)cn1 [Example 283, 6-(1-(difluoromethyl)-1H-pyrazol-4-yl)-4-(6-(3-((6-ethynylpyridin-3-yl)oxy)azetidin-1-yl)pyridin-3-yl)pyrazolo[1,5-a]pyridine-3-carbonitrile]
4 | 2.5 | 31.4 | Cn1cc(-c2cc(-c3ccc(N4CCN(CC#Cc5ccncc5)CC4)nc3)c3c(C#N)cnn3c2)cn1 [Example 263, 6-(1-methyl-1H-pyrazol-4-yl)-4-(6-(4-(3-(pyridin-4-yl)prop-2-yn-1-yl)piperazin-1-yl)pyridine-3-yl)pyrazolo[1,5-a]pyridine-3-carbonitrile]
5 | 1.57 | 19.7 | C#Cc1ccc(C(=O)N2CCN(c3ccc(-c4cc(-c5cnn(C)c5)cn5ncc(C#N)c45)cn3)CC2)cc1F [Example 236, 4-(6-(4-(4-ethynyl-3-fluorobenzoyl)piperazin-1-yl)pyridin-3-yl)-6-(1-methyl-1H-pyrazol-4-yl)pyrazolo[1,5-a]pyridine-3-carbonitrile]
6 | 1.63 | 23 | C#Cc1ccc(O[C@H]2CCN(c3ccc(-c4cc(-c5cnn(C(F)F)c5)cn5ncc(C#N)c45)cn3)C2)cn1 [Example 284, (S)-6-(1-(difluoromethyl)-1H-pyrazol-4-yl)-4-(6-(3-((6-ethynylpyridin-3-yl)oxy)pyrrolidin-1-yl)pyridin-3-yl) pyrazolo[1,5-a]pyridine-3-carbonitrile]
7 | 0.91 | 5.47 | Cn1cc(-c2cc(-c3ccc(N4CCN(CC#Cc5ccccc5)CC4)nc3)c3c(C#N)cnn3c2)cn1 [Example 253, 6-(1-methyl-1H-pyrazol-4-yl)-4-(6-(4-(3-phenylprop-2-yn-1-yl)piperazin-1-yl)pyridine-3-yl)pyrazolo[1,5-a]pyridine-3-carbonitrile]
8 | 0.17 | 0.74 | Cn1cc(-c2cc(-c3ccc(N4CCN(CC#Cc5ncccc5F)CC4)nc3)c3c(C#N)cnn3c2)cn1 [Example 257, 4-(6-(6-(3-(3-fluoropyridin-2-yl)prop-2-yn-1-yl)piperazin-3-yl)pyridin-3-yl)-6-(1-methyl-1H-pyrazol-4-yl)pyrazoline[1,5-a]pyridine-3-carbonitrile]
9 | 4 | 62.3 | C#Cc1cc(F)c(C(=O)N2CCN(c3ccc(-c4cc(-c5cnn(C)c5)cn5ncc(C#N)c45)cn3)CC2)c(F)c1 [Example 234, 4-(6-(4-(4-ethynyl-2,6-difluorobenzoyl)piperazin-1-yl)pyridin-3-yl)-6-(1-methyl-1H-pyrazol-4-yl)pyrazolo[1,5-a]pyridine-3-carbonitrile]
10 | 3.57 | 18.3 | COc1cncc(C#CCN2CCN(c3ccc(-c4cc(-c5cnn(C)c5)cn5ncc(C#N)c45)cn3)CC2)c1 [Example 254, 4-(6-(4-(3-(5-methoxypyridin-3-yl)prop-2-yn-1-yl)piperazin-1-yl)pyridin-3-yl)-6-(1-methyl-1H-pyrazol-4-yl)pyrazolo[1,5-a]pyridine-3-carbonitrile]
11 | 27 | – | Cn1cc(-c2cc(-c3ccc(N4CC5(CCN(C(=O)C#Cc6ccccc6)CC5)C4)nc3)c3c(C#N)cnn3c2)cn1 [Example 269, 6-(1-methyl-1H-pyrazol-4-yl)-4-(6-(7-(3-phenylpropioloyl)-2,7-diazaspiro[3.5]nonan-2-yl)pyridin-3-yl)pyrazolo[1,5-a]pyridine-3-carbonitrile]

Further lines, the molecule ahead of its results:

Row | SMILES | IC50 (Ret wt) [nM] | IC50 (Ret V804M) [nM]
12 | C#Cc1cc(CN2C3CC2CN(c2ccc(-c4cc(-c5cnn(C)c5)cn5ncc(C#N)c45)cn2)C3)ccc1F [Example 220, 4-(6-(3-(3-ethynyl-4-fluorobenzyl)-3,6-diazabicyclo[3.1.1]hept-3-yl)pyridin-3-yl)-6-(1-methyl-1H-pyrazol-4-yl)pyrazolo[1,5-a]pyridine-3-carbonitrile] | 0.22 | –
13 | C#Cc1cc(C(=O)N2C3CC2CN(c2ccc(-c4cc(-c5cnn(C)c5)cn5ncc(C#N)c45)cn2)C3)ccc1F [Example 233, 4-(6-(6-(3-ethynyl-4-fluorobenzoyl)-3,6-diazabicyclo[3.1.1]heptan-3-yl)pyridin-3-yl)-6-(1-methyl-1H-pyrazol-4-yl)pyrazolo[1,5-a]pyridine-3-carbonitrile] | 0.5 | 8.92
14 | C#Cc1cccc(C(=O)N2C3CC2CN(c2ccc(-c4cc(-c5cnn(C)c5)cn5ncc(C#N)c45)cn2)C3)c1 [Example 231, 4-(6-(6-(3-ethynyl)-3,6-diazabicyclo[3.1.1]heptan-3-yl)pyridin-3-yl)-6-(1-methyl-1H-pyrazol-4-yl)pyrazolo[1,5-a]pyridine-3-carbonitrile] | 3.75 | –
15 | Cn1cc(-c2cc(-c3ccc(N4CC5CC(C4)N5CC#Cc4cccnc4F)nc3)c3c(C#N)cnn3c2)cn1 [Example 256, 4-[6-[6-[3-(2-fluoro-3-pyridyl)prop-2-ynyl]-3,6-diazabicyclo[3.1.1]heptan-3-yl]3-pyridyl]-6-(1-methylpyrazol-4-yl)pyrazolo[1,5-a]pyridine-3-carbonitrile] | 0.14 | 0.44
16 | C#CC(=O)N1CCN(c2ccc(-c3cc(-c4cnn(C)c4)cn4ncc(C#N)c34)cn2)CC1 [Example 5] | 0.39 | 8.2
17 | Cn1cc(-c2cc(-c3ccc(N4CC5CC(C4)N5CC#Cc4ccccn4)nc3)c3c(C#N)cnn3c2)cn1 [Example 244] | 0.15 | 0.27
18 | Cn1cc(-c2cc(-c3ccc(N4CC5CC(C4)N5CC#Cc4ccc(C(F)(F)F)cc4)nc3)c3c(C#N)cnn3c2)cn1 [Example 242, 6-(1-methyl-1H-pyrazol-4-yl)-4-(6-(6-(3-(4-(trifluoromethyl)phenyl)prop-2-yn-1-yl)-3,6-diazabicyclo[3.1.1]heptan-3-yl)pyridin-3-yl)pyrazolo[1,5-a]pyridine-3-carbonitrile] | 1.72 | –
19 | C#Cc1cccc(C(=O)N2CCC3(CCN(c4ccc(-c5cc(-c6cnn(C)c6)cn6ncc(C#N)c56)cn4)CC3)C2)c1 [Example 229, 4-(6-(2-(3-ethynyl)-2,8-diazaspiro[4.5]dec-8-yl)pyridin-3-yl)-6-(1-methyl-1H-pyrazol-4-yl)pyrazolo[1,5-a]pyridine-3-carbonitrile] | 25.1 | –
20 | C#Cc1cccc(CN2C3CC2CN(c2ccc(-c4cc(-c5cnn(C)c5)cn5ncc(C#N)c45)cn2)C3)c1F [Example 218, 4-(6-(6-(3-ethynyl-2-fluorobenzyl)-3,6-diazabicyclo[3.1.1]heptan-3-yl)pyridin-3-yl)-6-(1-methyl-1H-pyrazol-4-yl)pyrazolo[1,5-a]pyridine-3-carbonitrile] | 0.52 | –
21 | C#Cc1cncc(CN2C3CC2CN(c2ccc(-c4cc(-c5cnn(C)c5)cn5ncc(C#N)c45)cn2)C3)c1 [Example 187, 4-(6-(6-((5-ethynylpyridin-3-yl)methyl)-3,6-diazabicyclo[3.1.1]heptan-3-yl)pyridin-3-yl)-6-(1-methyl-1H-pyrazol-4-yl)pyrazolo[1,5-a]pyridine-3-carbonitrile] | 0.28 | –
22 | C#Cc1ccc(C(=O)N2C3CC2CN(c2ccc(-c4cc(-c5cnn(C)c5)cn5ncc(C#N)c45)cn2)C3)cc1 [Example 230, 4-(6-(6-(4-ethynyl)-3,6-diazabicyclo[3.1.1]heptan-3-yl)pyridin-3-yl)-6-(1-methyl-1H-pyrazol-4-yl)pyrazolo[1,5-a]pyridine-3-carbonitrile] | 1.05 | –
23 | C#Cc1ccc(C(=O)NC2(C)CCN(c3ccc(-c4cc(-c5cnn(C)c5)cn5ncc(C#N)c45)cn3)CC2)cc1 [Example 2, N-(1-(5-(3-cyano-6-(1-methyl-1H-pyrazol-4-yl)pyrazolo[1,5-a]pyridin-4-yl)pyridin-2-yl)-4-methyl-piperidin-4-yl)-4-ethynylbenzamide] | 0.35 | –
24 | C#CCN1C2CC1CN(c1ccc(-c3cc(-c4cnn(C)c4)cn4ncc(C#N)c34)cn1)C2 [Example 195, 6-(1-methyl-1H-pyrazol-4-yl)-4-(6-(6-(prop-2-yn-1-yl)-3,6-diazabicyclo[3.1.1]heptan-3-yl)pyridin-3-yl)pyrazolo[1,5-a]pyridine-3-carbonitrile] | 0.29 | –
25 | C#Cc1cccc(C(C)N2C3CC2CN(c2ccc(-c4cc(-c5cnn(C)c5)cn5ncc(C#N)c45)cn2)C3)n1 (stereo not shown) [Example 219, 4-(6-(6-(1-(6-ethynylpyridin-2-yl)ethyl)-3,6-diazabicyclo[3.1.1]heptan-3-yl)pyridin-3-yl)-6-(1-methyl-1H-pyrazol-4-yl)pyrazolo[1,5-a]pyridine-3-carbonitrile] | 2.9 | –
26 | C#Cc1cc(CN2C3CC2CN(c2ccc(-c4cc(-c5cnn(C)c5)cn5ncc(C#N)c45)cn2)C3)ccn1 [Example 217, 4-(6-(6-((2-ethynylpyridin-4-yl)methyl)-3,6-diazabicyclo[3.1.1]heptan-3-yl)pyridin-3-yl)-6-(1-methyl-1H-pyrazol-4-yl)pyrazolo[1,5-a]pyridine-3-carbonitrile] | 0.35 | –
